Measured values from PubChem BioAssay (NCI).
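How tested: cells in 96-well plates exposed to compound for 48 hours at five concentrations. At the GI50, growth is halved. Definition used: TGI = concentration required for complete inhibition of growth.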

Assays:
Experiment in all cases: NCI tumour cell line growth inhibition, 48 h
DU-145 prostate = tested on: DU-145 prostate
CAKI-1 renal = tested on: CAKI-1 renal
MALME-3M melanoma = tested on: MALME-3M melanoma
BT-549 breast = tested on: BT-549 breast
MDA-MB-231 breast = tested on: MDA-MB-231 breast
IGROV1 ovarian = tested on: IGROV1 ovarian
NCI-H23 lung = tested on: NCI-H23 lung
786-0 renal = tested on: 786-0 renal
SK-OV-3 ovarian = tested on: SK-OV-3 ovarian
U251 CNS = tested on: U251 CNS

| SMILES | GI50 (DU-145 prostate) [µM] | TGI (DU-145 prostate) [µM] | GI50 (CAKI-1 renal) [µM] | TGI (CAKI-1 renal) [µM] | GI50 (MALME-3M melanoma) [µM] | TGI (MALME-3M melanoma) [µM] | GI50 (BT-549 breast) [µM] | TGI (BT-549 breast) [µM] | GI50 (MDA-MB-231 breast) [µM] | TGI (MDA-MB-231 breast) [µM] | GI50 (IGROV1 ovarian) [µM] | TGI (IGROV1 ovarian) [µM] | GI50 (NCI-H23 lung) [µM] | TGI (NCI-H23 lung) [µM] | GI50 (786-0 renal) [µM] | TGI (786-0 renal) [µM] | GI50 (SK-OV-3 ovarian) [µM] | TGI (SK-OV-3 ovarian) [µM] | GI50 (U251 CNS) [µM] | TGI (U251 CNS) [µM] |
| --- | --- | --- | --- | --- | --- | --- | --- | --- | --- | --- | --- | --- | --- | --- | --- | --- | --- | --- | --- | --- |
| O=C1c2ccccc2C(=O)c2c1ccc1[nH]c(CCl)nc21 | 4.27 | 14.5 | 2.61 | 9.89 | 2.82 | 10.9 | 3.52 | 12.7 | 3.74 | 15.3 | 2.03 | 6.59 | 1.65 | 3.6 | 2.91 | 9.38 | 3.67 | 9.08 | 2.21 | 6.56 |
| Cn1cc(C2=C(c3ccc(OC[C@@H](O)CO)cc3)C(=O)NC2=O)c2ccccc21 | > 25 | > 25 | > 25 | > 25 | > 25 | > 25 | > 25 | > 25 | > 25 | > 25 | > 25 | > 25 | > 25 | > 25 | > 25 | > 25 | > 25 | > 25 | > 25 | > 25 |
| COc1cc2c(c(OC)c1OC)-c1ccc(NCc3ccccc3)c(=O)cc1[C@@H](NC(C)=O)CC2 | 0.374 | 7.91 | 3.23 | 45.8 | 0.72 | 40.2 | 1.41 | 26.1 | 0.461 | 11.7 | 0.595 | 16.8 | 0.628 | 54.9 | 0.745 | 46.8 | 0.294 | 0.833 | 0.368 | 11.8 |
| N#Cc1nc(-c2ccc(F)cc2)oc1S(=O)(=O)N1CCOCC1 | 2.23 | 6.07 | 2.12 | 5.62 | 1.7 | 4.23 | 10.8 | 23 | 2.86 | 8.64 | 3.68 | 14.6 | 10.4 | 25.4 | 3.34 | 11.7 | 23.4 | 86.6 | 14.5 | 31.5 |
| CCOC(=O)c1cc(-c2ccc([N+](=O)[O-])cc2)n(-c2ccc(C(=O)O)c(O)c2)c1C | 4.55 | 17.5 | 11.6 | 30.1 | 2.23 | 12.5 | 3.83 | 18.1 | 10.3 | 29.9 | 4.42 | 19.2 | 3.18 | 13.7 | 4.84 | 17.2 | 10.8 | 23 | 3.61 | 14.1 |
| CC1=C2[C@@H](CC1)[C@]1(C)O[C@@](C(C)C)(C[C@H]1OC(=O)[C@H](C)O)[C@H]2OC(=O)/C=C/c1ccccc1 | 15.9 | 31.9 | 6.12 | 26 | 14.9 | 31.6 | 0.888 | 15.7 | 15.3 | 36.4 | 19.2 | 49.8 | 14.3 | 33.3 | 3.26 | 25.4 | 15.3 | 38 | 14.2 | 28 |
| C[C@@H]1Cc2c([nH]c3ccccc23)[C@@H](c2c(F)cc(/C=C/C(=O)O)cc2F)N1CC(C)(C)F | 19.1 | > 62.3 | 18.8 | 61.8 | 15.5 | 34.3 | 11.3 | 26.3 | 18.4 | 38 | 16.4 | 37.2 | 11.2 | 33.8 | 14.2 | 28.1 | 18.6 | 36.7 | 10.5 | 25 |
| Cc1c(Cl)cccc1Nc1ncccc1C(=O)O | > 100 | > 100 | 59 | > 100 | 73.4 | > 100 | 61.2 | > 100 | 92.3 | > 100 | > 100 | > 100 | 58.3 | > 100 | 70.4 | > 100 | > 100 | > 100 | 63.4 | > 100 |
| ClCc1ccccc1CSc1ncnc2nc[nH]c12 | > 60 | > 60 | > 60 | > 60 | > 60 | > 60 | > 60 | > 60 | > 60 | > 60 | > 60 | > 60 | > 60 | > 60 | > 60 | > 60 | > 60 | > 60 | > 60 | > 60 |
| COc1cc2c(NCCCCCCO[N+](=O)[O-])ncnc2c(OC)c1OC | – | 72.2 | – | 62.3 | – | 31.9 | – | 56 | – | 38 | – | > 84.4 | – | 59.6 | – | 69.2 | – | > 100 | – | > 100 |
| O=[n+]1c(CBr)c(CBr)n([O-])c2ccccc21 | 5.8 | 18.4 | 12 | 24.5 | 1.47 | 3.15 | 1.85 | 5.13 | 11.9 | 24.5 | 10.5 | 31 | 14.8 | 29.4 | 11.9 | 25.7 | 24.9 | > 100 | 14.5 | 29.8 |
| Clc1ccc(Cc2nc3cc4ccccc4cc3[nH]2)cc1 | 17.1 | > 100 | 6.55 | 69.9 | 26.8 | > 100 | 14.1 | > 100 | 25.4 | 96.1 | 26 | > 100 | 28.8 | > 100 | 8.99 | 43.2 | 14.7 | 83.3 | 10.5 | 29.6 |
